Test results taken from patent publication US20070167492A1, “Molluscicidal agents” (priority 2003, published 2007).

What was measured:
[1] = tested on: Deroceras reticulatum (grey field slug); test: Example 1: pot test, treated winter wheat seed with 5 adult slugs per pot, 14 days; assay type: in vivo
In short: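 Fludioxonil-disinfected winter wheat seed (Kampa, 40 per pot) sown on quartz sand over potting soil with 5 adult slugs per pot; ±15° C., ±90% RH, 12 h light/12 h dark, 4 replicates. Damaged seeds, plants, dead slugs and fecal pellets counted up to day 14; F-tests and Student-tests.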

[2] = tested on: Deroceras reticulatum (grey field slug); test: Example 2: pot re-test, treated winter wheat seed with 5 adult slugs per pot, 7 days; assay type: in vivo
In short: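 Pots sown with 40 treated winter wheat seeds on quartz sand over potting soil, each given 5 adult grey field slugs, kept at 18-19° C, ~95% RH, ~18 h light, no overhead irrigation; 4 replicates. Damaged seeds, intact plants, dead slugs and fecal pellets counted at 2, 3, 7 days; F-tests and Student tests.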

[3] = 2 ml formulated per kg seed, 2 days after sowing
[4] = 2 ml formulated per kg seed, 3 days after sowing
[5] = 2 ml formulated per kg seed, 7 days after sowing
[6] = 2 ml formulated per kg seed, 10 days after sowing
[7] = 2 ml formulated per kg seed, 14 days after sowing
[8] = 4 ml formulated per kg seed, 2 days after sowing
[9] = 4 ml formulated per kg seed, 3 days after sowing
[10] = 4 ml formulated per kg seed, 7 days after sowing
[11] = 4 ml formulated per kg seed, 10 days after sowing
[12] = 4 ml formulated per kg seed, 14 days after sowing
[13] = 10 ml formulated per kg seed, 2 days after sowing
[14] = 10 ml formulated per kg seed, 3 days after sowing
[15] = 10 ml formulated per kg seed, 7 days after sowing
[16] = 10 ml formulated per kg seed, 10 days after sowing
[17] = 10 ml formulated per kg seed, 14 days after sowing
[18] = Example 2, 2 ml formulated per kg seed, 2 days after sowing
[19] = Example 2, 2 ml formulated per kg seed, 3 days after sowing
[20] = Example 2, 2 ml formulated per kg seed, 7 days after sowing
[21] = Example 2, 4 ml formulated per kg seed, 2 days after sowing
[22] = Example 2, 4 ml formulated per kg seed, 3 days after sowing
[23] = Example 2, 4 ml formulated per kg seed, 7 days after sowing
[24] = Example 2, 10 ml formulated per kg seed, 2 days after sowing
[25] = Example 2, 10 ml formulated per kg seed, 3 days after sowing
[26] = Example 2, 10 ml formulated per kg seed, 7 days after sowing

For `O=CC=Cc1ccccc1` [cinnamaldehyde], the “number of utilizable plants after 14 days” value (“number … after 14 days” for short) ([1]; 2 ml formulated per kg seed) was 6.8, the “percentage of damaged seeds after 14 days” value (“percentage … after 14 days” for short) ([1]; 2 ml formulated per kg seed) was 64% and the “Mean number of damaged seeds per pot” value [1, 3] was 2.0. For the same compound, the “Mean number of dead slugs per pot” value [1, 3] was 0, the “Mean number fecal pellets per pot” value [1, 4] was 47 and the “Mean number of damaged seeds per pot” value [1, 4] was 5.5. The “Mean number of dead slugs per pot” value [1, 4] was 1.3, the “Mean number of plants present per pot” value [1, 4] was 3.3 and the “Mean number fecal pellets per pot” value [1, 5] was 71. For the same compound, the “Mean number of damaged seeds per pot” value [1, 5] was 24.5, the “Mean number of dead slugs per pot” value [1, 5] was 1.3 and the “Mean number of plants present per pot” value [1, 5] was 5.0. For the same compound, the “Mean number fecal pellets per pot” value [1, 6] was 80, the “Mean number of damaged seeds per pot” value [1, 6] was 24.8 and the “Mean number of dead slugs per pot” value [1, 6] was 1.3. The “Mean number of plants present per pot” value [1, 6] was 6.8, the “Mean number fecal pellets per pot” value [1, 7] was 95 and the “Mean number of damaged seeds per pot” value [1, 7] was 25.8. The “Mean number of dead slugs per pot” value [1, 7] was 1.8, the “Mean number of plants present per pot” value [1, 7] was 6.8 and the “number … after 14 days” value ([1]; 4 ml formulated per kg seed) was 0.5. For the same compound, the “percentage … after 14 days” value ([1]; 4 ml formulated per kg seed) was 73%, the “Mean number of damaged seeds per pot” value [1, 8] was 3.3 and the “Mean number of dead slugs per pot” value [1, 8] was 0. The “Mean number fecal pellets per pot” value [1, 9] was 46, the “Mean number of damaged seeds per pot” value [1, 9] was 6.5 and the “Mean number of dead slugs per pot” value [1, 9] was 0. For the same compound, the “Mean number of plants present per pot” value [1, 9] was 3.0, the “Mean number fecal pellets per pot” value [1, 10] was 111 and the “Mean number of damaged seeds per pot” value [1, 10] was 26.5. The “Mean number of dead slugs per pot” value [1, 10] was 0.3, the “Mean number of plants present per pot” value [1, 10] was 1.3 and the “Mean number fecal pellets per pot” value [1, 11] was 152. The “Mean number of damaged seeds per pot” value [1, 11] was 27.0, the “Mean number of dead slugs per pot” value [1, 11] was 0.3 and the “Mean number of plants present per pot” value [1, 11] was 1.8. For the same compound, the “Mean number fecal pellets per pot” value [1, 12] was 160, the “Mean number of damaged seeds per pot” value [1, 12] was 29.0 and the “Mean number of dead slugs per pot” value [1, 12] was 0.8. For the same compound, the “Mean number of plants present per pot” value [1, 12] was 0.8, the “number … after 14 days” value ([1]; 10 ml formulated per kg seed) was 0.5 and the “percentage … after 14 days” value ([1]; 10 ml formulated per kg seed) was 37%. For the same compound, the “Mean number of damaged seeds per pot” value [1, 13] was 4.0, the “Mean number of dead slugs per pot” value [1, 13] was 0 and the “Mean number fecal pellets per pot” value [1, 14] was 54. The “Mean number of damaged seeds per pot” value [1, 14] was 7.0, the “Mean number of dead slugs per pot” value [1, 14] was 1.3 and the “Mean number of plants present per pot” value [1, 14] was 5.0. For the same compound, the “Mean number fecal pellets per pot” value [1, 15] was 58, the “Mean number of damaged seeds per pot” value [1, 15] was 10.3 and the “Mean number of dead slugs per pot” value [1, 15] was 1.3. For the same compound, the “Mean number of plants present per pot” value [1, 15] was 0.3, the “Mean number fecal pellets per pot” value [1, 16] was 77 and the “Mean number of damaged seeds per pot” value [1, 16] was 10.3. The “Mean number of dead slugs per pot” value [1, 16] was 1.3, the “Mean number of plants present per pot” value [1, 16] was 0.5 and the “Mean number fecal pellets per pot” value [1, 17] was 93. For the same compound, the “Mean number of damaged seeds per pot” value [1, 17] was 14.8, the “Mean number of dead slugs per pot” value [1, 17] was 1.3 and the “Mean number of plants present per pot” value [1, 17] was 0.8. The “dead slugs relative to the untreated seed” value ([1]; Example 1, 2 or 10 ml per kg of seed, 3 days after the start) was “significantly more dead slugs”, the “damaged seeds relative to the untreated seed” value ([1]; Example 1, all dosages (2, 4, 10 ml/kg), after 3 and 7 days) was “significantly less damaged seeds” and the “protection / slug controlling effect (conclusion)” value ([1]; Example 1, winter wheat seed treatment, dosages tested) was “no protection to the plant”. The “fecal pellets in comparison to the control” value ([2]; Example 2) was “equal number of fecal pellets”, the “number of plants present relative to untreated” value ([2]; Example 2) was “no significantly different results” and the “phytotoxic effect on the seeds” value ([2]; Example 2) was “phytotoxic effect on the seeds”. The “reduction of damaged seeds relative to the untreated control” value ([2]; Example 2) was “more than 50%”, the “result of seed treatment against slugs (conclusion)” value ([2]; Example 2) was “does not result in the desired effect” and the “percentage of damaged seeds after 7 days” value ([2]; Example 2, 2 ml formulated per kg seed) was 63%. The “Mean number of damaged seeds per pot” value [2, 18] was 8.8, the “Mean number of dead slugs per pot” value [2, 18] was 0 and the “Mean number of damaged seeds per pot” value [2, 19] was 15.0. For the same compound, the “Mean number of dead slugs per pot” value [2, 19] was 0, the “Mean number of damaged seeds per pot” value [2, 20] was 25.0 and the “Mean number of dead slugs per pot” value [2, 20] was 0.5. The “percentage of damaged seeds after 7 days” value ([2]; Example 2, 4 ml formulated per kg seed) was 36%, the “Mean number of damaged seeds per pot” value [2, 21] was 5.0 and the “Mean number of dead slugs per pot” value [2, 21] was 0. For the same compound, the “Mean number of damaged seeds per pot” value [2, 22] was 8.8, the “Mean number of dead slugs per pot” value [2, 22] was 0 and the “Mean number of damaged seeds per pot” value [2, 23] was 14.3. For the same compound, the “Mean number of dead slugs per pot” value [2, 23] was 0.8, the “percentage of damaged seeds after 7 days” value ([2]; Example 2, 10 ml formulated per kg seed) was 39% and the “Mean number of damaged seeds per pot” value [2, 24] was 6.0. The “Mean number of dead slugs per pot” value [2, 24] was 0, the “Mean number of damaged seeds per pot” value [2, 25] was 10.5 and the “Mean number of dead slugs per pot” value [2, 25] was 0. For the same compound, the “Mean number of damaged seeds per pot” value [2, 26] was 15.8, the “Mean number of dead slugs per pot” value [2, 26] was 0.5 and the “number of damaged seeds relative to the untreated seed” value ([2]; Example 2, two days after the start) was “significant reduction in the number of damaged seeds”. For the same compound, the “Mean number of fecal pellets per pot” value ([2]; dosage 2 ml, 2 days) was 45, the “Mean number of plants present per pot” value ([2]; dosage 2 ml, 2 days) was 0 and the “Mean number of fecal pellets per pot” value ([2]; dosage 2 ml, 3 days) was 91. For the same compound, the “Mean number of plants present per pot” value ([2]; dosage 2 ml, 3 days) was 0, the “Mean number of fecal pellets per pot” value ([2]; dosage 2 ml, 7 days) was 124 and the “Mean number of plants present per pot” value ([2]; dosage 2 ml, 7 days) was 0. The “number of utilizable plants after 7 days” value ([2]; dosage 2 ml, 7 days) was 0, the “Mean number of fecal pellets per pot” value ([2]; dosage 4 ml, 2 days) was 28 and the “Mean number of plants present per pot” value ([2]; dosage 4 ml, 2 days) was 0. For the same compound, the “Mean number of fecal pellets per pot” value ([2]; dosage 4 ml, 3 days) was 58, the “Mean number of plants present per pot” value ([2]; dosage 4 ml, 3 days) was 0 and the “Mean number of fecal pellets per pot” value ([2]; dosage 4 ml, 7 days) was 82. The “Mean number of plants present per pot” value ([2]; dosage 4 ml, 7 days) was 0, the “number of utilizable plants after 7 days” value ([2]; dosage 4 ml, 7 days) was 0 and the “Mean number of fecal pellets per pot” value ([2]; dosage 10 ml, 2 days) was 42. For the same compound, the “Mean number of plants present per pot” value ([2]; dosage 10 ml, 2 days) was 0, the “Mean number of fecal pellets per pot” value ([2]; dosage 10 ml, 3 days) was 77 and the “Mean number of plants present per pot” value ([2]; dosage 10 ml, 3 days) was 0. For the same compound, the “Mean number of fecal pellets per pot” value ([2]; dosage 10 ml, 7 days) was 91, the “Mean number of plants present per pot” value ([2]; dosage 10 ml, 7 days) was 0 and the “number of utilizable plants after 7 days” value ([2]; dosage 10 ml, 7 days) was 0.
